≈ marks a conversion by molar mass, not a printed value. Blank lines part the entries; values can stand above or below the compound they belong to. Calls of active or inactive are those of the source. No cut-off for these calls is given here.
Legend:
[1] = Drug accumulation in wild-type Candida albicans SC5314 at 50 microg/ml incubated for 3 hrs by HPLC analysis; format: ADME; details: dose 50 µg/ml
Candida albicans [2] = experiment: microbe, parasite or virus in culture; format: functional; details: DSY654, time 24 hrs
Candida albicans [3] = experiment: Antifungal activity against wild-type Candida albicans SC5314 assessed as inhibition of fungal growth measured after 24 hrs by CLSI based microtiter plate analysis; format: functional
Candida albicans [4] = experiment: Antifungal activity against clinical isolate fluconazole-resistant Candida albicans Gu5 harbouring TAC1 mutation overexpressing efflux pump CdrL and Cdr2 assessed as inhibition of fungal growth measured after 24 hrs by CLSI based microtiter plate analysis; format: functional
[Candida] auris [5] = Antifungal activity against clinical isolate fluconazole-resistant Candida auris CBS12776 assessed as inhibition of fungal growth measured after 24 hrs by CLSI based microtiter plate analysis; format: functional; details: Candidozyma auris
[Candida] auris [6] = Antifungal activity against clinical isolate fluconazole-resistant Candida auris CBS12774 assessed as inhibition of fungal growth measured after 24 hrs by CLSI based microtiter plate analysis; format: functional; details: Candidozyma auris
Candida albicans [7] = experiment: Antifungal activity against clinical isolate Candida albicans SCUPC2R14MPG2A harbouring UPC2 mutation overexpressing […] Erg11 assessed as inhibition of fungal growth measured after 24 hrs by CLSI based microtiter plate analysis; format: functional
Cryptococcus neoformans = experiment: Antifungal activity against clinical isolate fluconazole-resistant Cryptococcus neoformans H99 assessed as inhibition of fungal growth measured after 24 hrs by CLSI based microtiter plate analysis; format: functional
Candida tropicalis = experiment: Antifungal activity against clinical isolate fluconazole-resistant Candida tropicalis CT10 assessed as inhibition of fungal growth measured after 24 hrs by CLSI based microtiter plate analysis; format: functional
Candida albicans [8] = experiment: Antifungal activity against clinical isolate fluconazole-resistant Candida albicans DSY296 harbouring TAC1 mutation overexpressing efflux pump CdrL and Cdr2 assessed as inhibition of fungal growth measured after 24 hrs by CLSI based microtiter plate analysis; format: functional
Candida albicans [9] = experiment: Antifungal activity against clinical isolate fluconazole-resistant Candida albicans G5 harbouring MRR1 mutation overexpressing MdrL assessed as inhibition of fungal growth measured after 24 hrs by CLSI based microtiter plate analysis; format: functional
Candida albicans [10] = experiment: Antifungal activity against clinical isolate Candida albicans YEM15 overexpressing efflux pump CdrL and Cdr2 assessed as inhibition of fungal growth measured after 24 hrs by CLSI based microtiter plate analysis; format: functional
Candida albicans [11] = experiment: Antifungal activity against clinical isolate Candida albicans SCMRRIR34MPG2A harbouring MRR1 mutation overexpressing efflux pump MdrL assessed as inhibition of fungal growth measured after 24 hrs by CLSI based microtiter plate analysis; format: functional
Nakaseomyces glabratus = experiment: Antifungal activity against clinical isolate fluconazole-resistant Candida glabrata CG2 assessed as inhibition of fungal growth measured after 24 hrs by CLSI based microtiter plate analysis; format: functional
Candida albicans [12] = experiment: Antifungal activity against clinical isolate fluconazole-resistant Candida albicans CA632 assessed as inhibition of fungal growth measured after 24 hrs by CLSI based microtiter plate analysis; format: functional
Candida albicans [13] = experiment: Antifungal activity against clinical isolate Candida albicans YEM13 overexpressing efflux pump MdrL assessed as inhibition of fungal growth measured after 24 hrs by CLSI based microtiter plate analysis; format: functional
[14] = Candida albicans, SC5314, read-out: MIC80
[15] = Candida albicans, SC5314, 24 h, read-out: MIC80

Drug uptake ([1]; BLD = below limit of detection): Bld
Compound: C=C1C(=O)[C@@]2(C)CC[C@@H]3[C@]1(CC[C@H]1[C@@]3(C)CCC[C@@]1(C)C(=O)O)C2

MIC80 (Candida albicans [2]): > 256 µg/mL
MIC80 (Candida albicans [3]; [14]): > 256 µg/mL
Compound: BrCCC[P+](c1ccccc1)(c1ccccc1)c1ccccc1.[Br-]

MIC80 (Candida albicans [2]): 128 µg/mL
MIC80 (Candida albicans [3]; [14]): 128 µg/mL
Compound: Cc1cc(N)c2ccccc2[n+]1CCCCCI.[I-]

Drug uptake ([1]; BLD = below limit of detection): Bld
Compound: C[C@H]1[C@H](C)CC[C@]2(C(=O)O)CC[C@]3(C)C(=CC[C@@H]4[C@@]5(C)CC[C@H](O)C(C)(C)[C@@H]5CC[C@]43C)[C@H]12 [URSOLIC ACID]

MIC (Candida albicans [2]): 4 µg/mL (≈ 13.4 µM)
Drug uptake ([1]; BLD = below limit of detection): Bld
Compound: Cc1ccc(Sc2ccccc2N2CCNCC2)c(C)c1 [VORTIOXETINE]

Drug uptake [1]: Active
MIC80 (Candida albicans [3]; [14]): 16 µg/mL (≈ 23.1 µM)
Compound: CC(=O)O[C@H]1C[C@@]2(C)[C@@H](C[C@@H](O)[C@H]3[C@@]4(C)CC[C@@H](O)[C@@H](C)[C@@H]4CC[C@@]32C)/C1=C(\CCC=C(C)C)C(=O)OCCCOc1ccc(C(=N)N)cc1

Drug uptake [1]: Active
MIC80 (Candida albicans [3]; [14]): 32 µg/mL (≈ 68.9 µM)
Compound: N=C(N)c1ccc(OCCCN2CCN(C(c3ccc(F)cc3)c3ccc(F)cc3)CC2)cc1

Drug uptake ([1]; BLD = below limit of detection): Bld
MIC (Candida albicans [3]; Candida albicans, SC5314): > 256 µg/mL
Compound: C=C1C(=O)O[C@@]23CC[C@H]4[C@@](C)(CCC[C@@]4(C)C(=O)O)[C@@H]2CC[C@]1(O)C3

Drug uptake [1]: Active
MIC80 (Candida albicans [3]; [14]): 32 µg/mL (≈ 61 µM)
Compound: C=C1C(=O)O[C@@]23CC[C@H]4[C@@](C)(CCC[C@@]4(C)C(=O)OCCCOc4ccc(C(=N)N)cc4)[C@@H]2CC[C@]1(O)C3

MIC (Candida albicans [2]): 4 µg/mL (≈ 14.9 µM)
Compound: CC/C(=C(/CC)c1ccc(O)cc1)c1ccc(O)cc1 [DIETHYLSTILBESTROL]

Drug uptake ([1]; BLD = below limit of detection): Bld
Compound: C[C@@]12CC[C@@H]3[C@@](CC[C@H]4[C@@]3(C)CCC[C@@]4(C)C(=O)O)(CC1=O)C2 [ISOSTEVIOL]

Drug uptake [1]: Active
MIC80 (Candida albicans [3]; [14]): 4 µg/mL (≈ 6.32 µM)
Compound: CC1(C)CC[C@]2(C(=O)OCCCOc3ccc(C(=N)N)cc3)CC[C@]3(C)C(=CC[C@@H]4[C@@]5(C)CC[C@H](O)C(C)(C)[C@@H]5CC[C@]43C)[C@@H]2C1

Compound: C=CCc1ccc(O)c(-c2ccc(OCCCOc3ccc(C(=N)N)cc3)c(CC=C)c2)c1
MIC80 (Candida albicans [4]): 8 µg/mL (≈ 18.1 µM)
MIC80 ([Candida] auris [5]): 16 µg/mL (≈ 36.2 µM)
MIC80 ([Candida] auris [6]): 8 µg/mL (≈ 18.1 µM)
MIC80 (Candida albicans [7]): 8 µg/mL (≈ 18.1 µM)
MIC80 (Cryptococcus neoformans): 8 µg/mL (≈ 18.1 µM)
MIC80 (Candida tropicalis): 16 µg/mL (≈ 36.2 µM)
MIC80 (Candida albicans [8]): 8 µg/mL (≈ 18.1 µM)
MIC80 (Candida albicans [9]): 8 µg/mL (≈ 18.1 µM)
MIC80 (Candida albicans [10]): 8 µg/mL (≈ 18.1 µM)
MIC80 (Candida albicans [11]): 8 µg/mL (≈ 18.1 µM)
Drug uptake [1]: Active
MIC80 (Nakaseomyces glabratus): 16 µg/mL (≈ 36.2 µM)
MIC80 (Candida albicans [12]): 8 µg/mL (≈ 18.1 µM)
MIC80 (Candida albicans [13]): 8 µg/mL (≈ 18.1 µM)
MIC (Candida albicans [3]): inactive
MIC80 (Candida albicans [3]; [15]): 8 µg/mL (≈ 18.1 µM)

MIC (Candida albicans [2]): 4 µg/mL (≈ 15 µM)
Drug uptake ([1]; BLD = below limit of detection): Bld
Compound: C=CCc1ccc(O)c(-c2ccc(O)c(CC=C)c2)c1 [HONOKIOL]

Compound: CC/C(=C(/CC)c1ccc(OCCCOc2ccc(C(=N)N)cc2)cc1)c1ccc(O)cc1
MIC80 (Candida albicans [4]): 4 µg/mL (≈ 9 µM)
MIC80 ([Candida] auris [5]): 4 µg/mL (≈ 9 µM)
MIC80 ([Candida] auris [6]): 4 µg/mL (≈ 9 µM)
MIC80 (Candida albicans [7]): 4 µg/mL (≈ 9 µM)
MIC80 (Cryptococcus neoformans): 8 µg/mL (≈ 18 µM)
MIC80 (Candida tropicalis): 4 µg/mL (≈ 9 µM)
MIC80 (Candida albicans [8]): 4 µg/mL (≈ 9 µM)
MIC80 (Candida albicans [9]): 4 µg/mL (≈ 9 µM)
MIC80 (Candida albicans [10]): 4 µg/mL (≈ 9 µM)
MIC80 (Candida albicans [11]): 4 µg/mL (≈ 9 µM)
Drug uptake [1]: Active
MIC80 (Nakaseomyces glabratus): 8 µg/mL (≈ 18 µM)
MIC80 (Candida albicans [12]): 4 µg/mL (≈ 9 µM)
MIC80 (Candida albicans [13]): 4 µg/mL (≈ 9 µM)
MIC (Candida albicans [3]): inactive
MIC80 (Candida albicans [3]; [15]): 4 µg/mL (≈ 9 µM)

Drug uptake [1]: Active
MIC80 (Candida albicans [3]; [14]): 64 µg/mL (≈ 101 µM)
Compound: C=C(C)[C@@H]1CC[C@]2(C(=O)OCCCOc3ccc(C(=N)N)cc3)CC[C@]3(C)[C@H](CC[C@@H]4[C@@]5(C)CC[C@H](O)C(C)(C)[C@@H]5CC[C@]43C)[C@@H]12

MIC80 (Candida albicans [2]): > 256 µg/mL
MIC80 (Candida albicans [3]; [14]): > 256 µg/mL
Compound: CCc1n(CCCI)c2ccccc2[n+]1C.[I-]

Compound: CCOC(=O)C1=C(COCCN)NC(C)=C(C(=O)OC)C1c1ccccc1Cl (stereo not given) [AMLODIPINE]
MIC (Candida albicans [2]): 32 µg/mL (≈ 78.3 µM)
Drug uptake ([1]; BLD = below limit of detection): Bld

Compound: C=C1C(=O)[C@@]23CC[C@H]4[C@@](C)(CCC[C@@]4(C)C(=O)OCCCOc4ccc(C(=N)N)cc4)[C@@H]2CC[C@]1(O)C3
MIC80 (Candida albicans [4]): 8 µg/mL (≈ 15.7 µM)
MIC80 ([Candida] auris [5]): 8 µg/mL (≈ 15.7 µM)
MIC80 ([Candida] auris [6]): 8 µg/mL (≈ 15.7 µM)
MIC80 (Candida albicans [7]): 4 µg/mL (≈ 7.86 µM)
MIC80 (Cryptococcus neoformans): 8 µg/mL (≈ 15.7 µM)
MIC80 (Candida tropicalis): 4 µg/mL (≈ 7.86 µM)
MIC80 (Candida albicans [8]): 4 µg/mL (≈ 7.86 µM)
MIC80 (Candida albicans [9]): 4 µg/mL (≈ 7.86 µM)
MIC80 (Candida albicans [10]): 4 µg/mL (≈ 7.86 µM)
MIC80 (Candida albicans [11]): 8 µg/mL (≈ 15.7 µM)
Drug uptake [1]: Active
MIC80 (Nakaseomyces glabratus): 8 µg/mL (≈ 15.7 µM)
MIC80 (Candida albicans [12]): 4 µg/mL (≈ 7.86 µM)
MIC80 (Candida albicans [13]): 4 µg/mL (≈ 7.86 µM)
MIC80 (Candida albicans [3]; [15]): 4 µg/mL (≈ 7.86 µM)
